Reference: patent US7115279B2, “Pharmaceutical compositions of cholesteryl ester transfer protein inhibitors” (priority 2000, dated 2006)
Values belong to the compound of their own block, whether it stands above or below them.

Experiments:
Format in all cases: physicochemical
[1] = in vitro dissolution test, microcentrifuge method, MFDS (Example 5, Drug 1 dispersions); conditions: model-fasted duodenal solution (MFDS), pH 6.5, maximum concentration of Drug 1 in solution during the 90-minute test, TCmax 100 or 500 μg/mL
Method: The spray-dried dispersions of Examples 1 to 4 were evaluated in in vitro dissolution tests using a microcentrifuge method. In this method, 1 mg of the spray-dried dispersions was added to a 1.5-mL microcentrifuge tube. The tube was placed in a 37° C. sonicating bath, and 1 mL of a model-fasted duodenal solution (MFDS) (comprising sodium taurocholate/1-palmitoyl-2-oleoyl-sn-glycero-3-phosphocholine (NaTC-POPC) in phosphate-buffered saline (PBS) at pH 6.5 and 290 mOsm/kg) was added. The samples were quickly mixed using a combination of vortex mixer and sonication for about 90 seconds. The theoretical maximum concentration (“TCmax”) of drug for Examples 1–3 if all the drug dissolved was 100 μg/mL, while for Example 4 the TCmax was 500 μg/mL. The samples were centrifuged at 13,000 G at 37° C. for 1 minute. The resulting supernatant solution was then sampled (100 μL) and diluted with 200 μL methanol and then analyzed by HPLC. The tubes were then mixed on the vortex mixer and allowed to stand undisturbed at 37° C. until the next sample. Samples were collected at 3, 10, 30, 60, and 90 minutes and for Examples 1 and 2 at 1200 minutes.
For Control 1, an in vitro test was performed using the procedure described above, except that 0.18 mg of crystalline Drug 1 was placed in a microcentrifuge tube and mixed with 1.8 mL of MFDS.

[2] = in vitro dissolution test, microcentrifuge method, PBS (Example 8, Drug 2 dispersions); conditions: for Drug 2 Concentration / AUC: PBS pH 6.5, 37° C.; for Drug 2 Concentration: dose about 1000 μg/mL
Method: The spray-dried dispersions of Examples 6 and 7 were evaluated in an in vitro dissolution test using a microcentrifuge method. In this test, the spray-dried dispersion was added to a microcentrifuge tube for a Drug 2 dose of about 1000 μg/mL (7.2 mg for Example 6, 18 mg for Example 7). The tube was placed in a 37° C. sonicating bath, and 1.8 mL phosphate buffered saline (PBS) at pH 6.5 and 290 mOsm/kg was added. The samples were quickly mixed using a vortex mixer for about 60 seconds. The samples were centrifuged at 13,000 G at 37° C. for 1 minute. The resulting supernatant solution was then sampled and diluted 1:6 (by volume) with methanol and then analyzed by high-performance liquid chromatography (HPLC). The contents of the tubes were mixed on the vortex mixer and allowed to stand undisturbed at 37° C. until the next sample was taken. Samples were collected at 4, 10, 20, 40, 90, and 1200 minutes. […]

[3] = in vitro dissolution test, receptor solution MFDS (Example 17, Drug 2 dispersions); conditions: TCmax 400 or 100 μg/mL, read-out: Cmax, 90
Method: The spray-dried dispersions of Examples 6 and 7 were evaluated in an in vitro dissolution test using a microcentrifuge method. In this test, the spray-dried dispersion was added to a microcentrifuge tube for a Drug 2 dose of about 1000 μg/mL (7.2 mg for Example 6, 18 mg for Example 7). The tube was placed in a 37° C. sonicating bath, and 1.8 mL phosphate buffered saline (PBS) at pH 6.5 and 290 mOsm/kg was added. The samples were quickly mixed using a vortex mixer for about 60 seconds. The samples were centrifuged at 13,000 G at 37° C. for 1 minute. The resulting supernatant solution was then sampled and diluted 1:6 (by volume) with methanol and then analyzed by high-performance liquid chromatography (HPLC). The contents of the tubes were mixed on the vortex mixer and allowed to stand undisturbed at 37° C. until the next sample was taken. Samples were collected at 4, 10, 20, 40, 90, and 1200 minutes.
The dispersions of Examples 9–16 were also evaluated in an in vitro dissolution test using receptor solutions of MFDS using the procedures outlined in Example 8.
For Control 3, an in vitro dissolution test was performed using the procedure described above except that 0.72 mg of crystalline Drug 2 was used.

[4] = in vitro dissolution test, microcentrifuge method, PBS (Example 29, Drug 3 dispersions); conditions: phosphate-buffered saline, pH 6.5, TCmax 400 μg/mL, read-out: Cmax, 90
Method: The spray-dried dispersions of Examples 21–28 were evaluated in an in vitro dissolution test using a microcentrifuge method. In this method, 7.2 mg of each SDD was added to a 2-mL microcentrifuge tube. The tube was placed in a 37° C. sonicating bath, and 1.8 mL of a phosphate-buffered saline (PBS) solution at pH 6.5 and 290 mOsm/kg was added, resulting in a TCmax of 400 μg/mL. The samples were quickly mixed using a combination of vortex mixer and sonication for about 90 seconds. The samples were centrifuged at 13,000 G at 37° C. for 1 minute. The resulting supernatant solution was then sampled and diluted 1:6 (by volume) with methanol and then analyzed by HPLC. The tubes were then mixed on the vortex mixer and allowed to stand undisturbed at 37° C. until the next sample. Samples were collected at 4, 10, 20, 40, 90 and 1200 minutes.
For Control 5, an in vitro dissolution test was performed using the procedure described above, except that 0.72 mg of non-crystalline Drug 3 was placed in a microcentrifuge tube and mixed with 1.8 mL of PBS.

[5] = in vitro dissolution test, microcentrifuge method, PBS (Example 42, Drugs 4-9 dispersions); conditions: PBS pH 6.5, 37° C.; for Cmax: phosphate-buffered saline, read-out: Cmax, 90
Method: In this method, 15 mg of each SDD was added to a 2-mL microcentrifuge tube. The tube was placed in a 37° C. sonicating bath, and 1.5 mL of a phosphate-buffered saline (PBS) solution at pH 6.5 and 290 mOsm/kg) was added, resulting in a TCmax of 1000 μg/mL. The samples were quickly mixed using a combination of vortex mixer and sonication for about 90 seconds. The samples were centrifuged at 13,000 G at 37° C. for 1 minute. The resulting supernatant solution was then sampled and diluted 1:6 (by volume) with methanol and then analyzed by HPLC. The tubes were then mixed on the vortex mixer and allowed to stand undisturbed at 37° C. until the next sample. Samples were collected at 4, 10, 20, 40, and 90 minutes.
For Controls 6–11, an in vitro dissolution test was performed using the procedure described above, except that 1.5 mg of non-crystalline drug was placed in a microcentrifuge tube and mixed with 1.5 mL of PBS.

Compound: COC(=O)N(Cc1cc(C(F)(F)F)cc(C(F)(F)F)c1)[C@@H]1C[C@H](C2CC2)N(C(=O)OC(C)C)c2ccc(C(F)(F)F)cc21 [Control 1, [2R,4R] 4-[(3,5-bis-trifluoromethyl-benzyl)-methoxycarbonyl-amino]-2-cyclopropyl-6-trifluoromethyl-3,4-dihydro-2H-quinoline-1-carboxylic acid isopropyl ester]
Cmax at 100 μg/mL [1]: 0.9 µg/mL

Compound: CCOC(=O)N1c2cc(OC)c(OC)cc2[C@@H](N(Cc2cc(C(F)(F)F)cc(C(F)(F)F)c2)C(=O)OC)C[C@H]1C [Control 6, [2R,4S] 4-[(3,5-bis-trifluoromethyl-benzyl)-methoxycarbonyl-amino]-6,7-dimethoxy-2-methyl-3,4-dihydro-2H-quinoline-1-carboxylic acid ethyl ester]
Cmax ([5]; TCmax 1000 μg/mL): < 1 µg/mL

Compound: CCOC(=O)N1c2cc(CC)c(CC)cc2[C@@H](N(Cc2cc(C(F)(F)F)cc(C(F)(F)F)c2)C(=O)OC)C[C@H]1C [Control 7, [2R,4S] 4-[(3,5-bis-trifluoromethyl-benzyl)-methoxycarbonyl-amino]-6,7-diethyl-2-methyl-3,4-dihydro-2H-quinoline-1-carboxylic acid ethyl ester]
Cmax ([5]; TCmax 1000 μg/mL): < 1 µg/mL

Compound: CCOC(=O)N1c2cc3c(cc2[C@@H](N(Cc2cc(C(F)(F)F)cc(C(F)(F)F)c2)C(=O)OC)C[C@H]1C)CCC3 [Control 8, [2R,4S] 4-[(3,5-bis-trifluoromethyl-benzyl)-methoxycarbonyl-amino]-2-methyl-2,3,4,6,7,8-hexahydro-cyclopenta[g]quinoline-1-carboxylic acid ethyl ester]
AUC ([5]; Time 0 min): 0 µg·min/mL
Concentration ([5]; Time 0 min): 0 µg/mL
Cmax ([5]; TCmax 1000 μg/mL): < 1 µg/mL

Compound: CC1(C)Cc2nc(C3CCCC3)c([C@@H](F)c3ccc(C(F)(F)F)cc3)c(-c3ccc(F)cc3)c2[C@@H](O)C1 [Control 11, [3S,5S] 2-cyclopentyl-4-(4-fluoro-phenyl)-3-[fluoro-(4-trifluoromethyl-phenyl)-methyl]-7,7-dimethyl-5,6,7,8-tetrahydro-quinolin-5-ol]
Cmax, 90 ([5]; TCmax 1000 μg/mL): <1 µg/mL

Continued, values first:

Drug 2 Concentration ([2]; time 0 min): 0 µg/mL
Drug 2 Concentration ([2]; time 4 min): 6 µg/mL
Drug 2 Concentration ([2]; time 10 min): <1 µg/mL
Drug 2 Concentration ([2]; time 20 min): <1 µg/mL
Drug 2 Concentration ([2]; time 40 min): 3 µg/mL
Drug 2 Concentration ([2]; time 90 min): <1 µg/mL
Drug 2 Concentration ([2]; time 1200 min): <1 µg/mL
AUC ([2]; time 0 min): 0 µg·min/mL
AUC ([2]; time 4 min): 12 µg·min/mL
AUC ([2]; time 10 min): 30 µg·min/mL
AUC ([2]; time 20 min): 30 µg·min/mL
AUC ([2]; time 40 min): 60 µg·min/mL
AUC ([2]; time 90 min): 135 µg·min/mL
AUC ([2]; time 1200 min): 135 µg·min/mL
AUC90 ([2]; area under the aqueous concentration versus time curve after 90 minutes, PBS): 135 µg·min/mL
Cmax at 1000 μg/mL ([2]; phosphate buffered saline (PBS), pH 6.5, maximum concentration of Drug 2 in solution during the first 90 minutes, PBS): 6 µg/mL
Compound: CCOC(=O)N1c2ccc(C(F)(F)F)cc2[C@@H](N(Cc2cc(C(F)(F)F)cc(C(F)(F)F)c2)C(=O)OC)C[C@H]1CC [Control 2, [2R,4S] 4-[(3,5-bis-trifluoromethyl-benzyl)-methoxycarbonyl-amino]-2-ethyl-6-trifluoromethyl-3,4-dihydro-2H-quinoline-1-carboxylic acid ethyl ester]

Cmax [3]: < 1 µg/mL
Compound: CCOC(=O)N1c2ccc(C(F)(F)F)cc2[C@@H](N(Cc2cc(C(F)(F)F)cc(C(F)(F)F)c2)C(=O)OC)C[C@H]1CC [Control 3, [2R,4S] 4-[(3,5-bis-trifluoromethyl-benzyl)-methoxycarbonyl-amino]-2-ethyl-6-trifluoromethyl-3,4-dihydro-2H-quinoline-1-carboxylic acid ethyl ester]

Cmax [4]: < 0.1 µg/mL
Compound: CCCOC(=O)N1c2ccc(C(F)(F)F)cc2[C@@H](N(Cc2cc(C(F)(F)F)cc(C(F)(F)F)c2)C(=O)OC)C[C@H]1CC [Control 5, [2R,4S] 4-[(3,5-bis-trifluoromethyl-benzyl)-methoxycarbonyl-amino]-2-ethyl-6-trifluoromethyl-3,4-dihydro-2H-quinoline-1-carboxylic acid propyl ester]

Cmax ([5]; TCmax 1000 μg/mL): < 1 µg/mL
Compound: CC[C@@H]1C[C@H](N(Cc2cc(C(F)(F)F)cc(C(F)(F)F)c2)C(C)=O)c2cc(C(F)(F)F)ccc2N1C(=O)OC(C)C [Control 9, [2R,4S] 4-[acetyl-(3,5-bis-trifluoromethyl-benzyl)-amino]-2-ethyl-6-trifluoromethyl-3,4-dihydro-2H-quinoline-1-carboxylic acid isopropyl ester]

Cmax ([5]; TCmax 1000 μg/mL): < 1 µg/mL
Compound: COC(=O)N(Cc1cc(C(F)(F)F)cc(C(F)(F)F)c1)[C@H]1C[C@@H](C2CC2)N(C(=O)OC(C)C)c2ccc(C(F)(F)F)cc21 [Control 10, [2S,4S] 4-[(3,5-bis-trifluoromethyl-benzyl)-methoxycarbonyl-amino]-2-cyclopropyl-6-trifluoromethyl-3,4-dihydro-2H-quinoline-1-carboxylic acid isopropyl ester]
